Test results: ChEMBL document CHEMBL1221210, “A Cdc7 kinase inhibitor restricts initiation of DNA replication and has antitumor activity” (Nat Chem Biol, 2008)

Columns and labels:
[1] = system: SW480; assay: Induction of cell cycle arrest in p53 deficient human SW480 cells assessed as accumulation at subG1 phase at 10 uM after 24hrs by FACS analysis; format: functional
[2] = system: K562; assay: Antiproliferative activity against p53 deficient human K562 cells after 72 hrs; format: functional, cell-based; settings: K562, 72 h
[3] = Induction of cell cycle arrest in p53 deficient human HCT116-E6 cells assessed as residual DNA synthesis at 10 uM after 24 hrs by FACS analysis; format: functional
[4] = system: HCT-15; assay: Induction of cell cycle arrest in human HCT15 cells expressing p53 gene assessed as accumulation at subG1 phase at 5 uM after 24hrs by FACS analysis; format: functional
[5] = Clearance in SCID mouse carrying human HL60 cells at 20 mg/kg or 30 mg/kg, iv after 10 hrs; format: ADME, organism-based, HL-60; settings: in vivo
[6] = system: SW480; assay: Antiproliferative activity against p53 deficient human SW480 cells after 72 hrs by proliferative assay; format: functional, cell-based; settings: SW480, 72 h
[7] = system: OVCAR-8; assay: Induction of cell cycle arrest in p53 deficient human OVCAR8 cells assessed as accumulation at subG1 phase at 5 uM after 24hrs by FACS analysis; format: functional
[8] = system: Jurkat; assay: Antiproliferative activity against p53 deficient human Jurkat cells after 72 hrs by proliferative assay; format: functional, cell-based
[9] = system: HeLa; assay: Inhibition of DNA replication in human HeLa cells assessed as interorigin distance between homogenous DNA fibers at 5 uM after 4 hrs by immunofluorescence assay; format: functional
[10] = system: HeLa; assay: Inhibition of DNA replication in human HeLa cells assessed as interorigin distance between homogenous DNA fibers at 20 uM after 4 hrs by immunofluorescence assay; format: functional
[11] = system: Jurkat; assay: Induction of cell cycle arrest in p53 deficient human Jurkat cells assessed as residual DNA synthesis at 10 uM after 24 hrs by FACS analysis; format: functional
[12] = system: SF-268; assay: Induction of cell cycle arrest in p53 deficient human SF268 cells assessed as accumulation at subG1 phase at 10 uM after 24 hrs FACS analysis; format: functional
[13] = system: SW480; assay: Induction of cell cycle arrest in p53 deficient human SW480 cells assessed as residual DNA synthesis at 10 uM after 24 hrs by FACS analysis; format: functional
[14] = system: U2OS; assay: Induction of cell cycle arrest in human U2OS cells expressing p53 gene assessed as accumulation at subG1 phase at 5 uM after 24hrs by FACS analysis; format: functional
[15] = Antiproliferative activity against human NCI60 cells
[16] = target: Tyrosine-protein kinase ZAP-70 (Homo sapiens, UniProt P43403); assay: Inhibition of ZAP70
[17] = system: HeLa; assay: Inhibition of DNA replication in human HeLa cells assessed as increase in replication fork speed per min at 2 uM after 2 hrs by immunofluorescence assay; format: functional
[18] = system: SF-539; assay: Induction of cell cycle arrest in human SF539 cells expressing p53 gene assessed as residual DNA synthesis at 5 uM after 24 hrs by FACS analysis; format: functional
[19] = system: Jurkat; assay: Induction of cell cycle arrest in p53 deficient human Jurkat cells assessed as accumulation at subG1 phase at 5 uM after 24hrs by FACS analysis; format: functional
[20] = system: Jurkat; assay: Induction of cell cycle arrest in p53 deficient human Jurkat cells assessed as accumulation at subG1 phase at 10 uM after 24hrs by FACS analysis; format: functional
[21] = system: NHDF; assay: Induction of cell cycle arrest in NHDF expressing p53 gene assessed as accumulation at subG1 phase at 5 uM after 24hrs by FACS analysis; format: cell-based; settings: human
[22] = system: PC-3; assay: Induction of cell cycle arrest in human PC3 cells expressing p53 gene assessed as accumulation at subG1 phase at 5 uM after 24hrs by FACS analysis; format: functional
[23] = system: SF-268; assay: Induction of cell cycle arrest in p53 deficient human SF268 cells assessed as accumulation at subG1 phase at 5 uM after 24 hrs FACS analysis; format: functional
[24] = system: NHDF; assay: Induction of cell cycle arrest in NHDF assessed as accumulation at subG1 phase at 5 uM after 24hrs by propidium-iodine staining based FACS analysis; settings: human
[25] = system: PC-3; assay: Induction of cell cycle arrest in human PC3 cells expressing p53 gene assessed as residual DNA synthesis at 10 uM after 24 hrs by FACS analysis; format: functional
[26] = system: SF-539; assay: Induction of cell cycle arrest in human SF539 cells expressing p53 gene assessed as residual DNA synthesis at 10 uM after 24 hrs by FACS analysis; format: functional
[27] = system: SW480; assay: Induction of cell cycle arrest in p53 deficient human SW480 cells assessed as residual DNA synthesis at 5 uM after 24 hrs by FACS analysis; format: functional
[28] = system: PC-3; assay: Induction of cell cycle arrest in human PC3 cells expressing p53 gene assessed as accumulation at subG1 phase at 10 uM after 24 hrs by FACS analysis; format: functional
[29] = system: COLO 205; assay: Induction of cell cycle arrest in p53 deficient human COLO205 cells assessed as accumulation at subG1 phase at 5 uM after 24hrs by FACS analysis; format: functional
[30] = system: U2OS; assay: Induction of cell cycle arrest in human U2OS cells expressing p53 gene assessed as residual DNA synthesis at 10 uM after 24 hrs by FACS analysis; format: functional
[31] = system: HeLa; assay: Inhibition of DNA replication in human HeLa cells assessed as increase in replication fork speed per min at 20 uM after 4 hrs by immunofluorescence assay; format: functional
[32] = system: COLO 205; assay: Induction of cell cycle arrest in p53 deficient human COLO205 cells assessed as residual DNA synthesis at 10 uM after 24 hrs by FACS analysis; format: functional
[33] = system: HeLa; assay: Inhibition of DNA replication in human HeLa cells assessed as interorigin distance between homogenous DNA fibers at 20 uM after 2 hrs by immunofluorescence assay; format: functional
[34] = system: HeLa; assay: Inhibition of DNA replication in human HeLa cells assessed as increase in replication fork speed per min at 5 uM after 2 hrs by immunofluorescence assay; format: functional
[35] = system: HCT-116; assay: Induction of cell cycle arrest in human HCT116 cells expressing p53 gene assessed as accumulation at subG1 phase at 10 uM after 24 hrs by FACS analysis; format: functional
[36] = system: HeLa; assay: Inhibition of DNA replication in human HeLa cells assessed as increase in replication fork speed per min at 20 uM after 2 hrs by immunofluorescence assay; format: functional
[37] = Induction of cell cycle arrest in p53 deficient human A2780/E6 cells assessed as residual DNA synthesis at 10 uM after 24 hrs by FACS analysis; format: functional
[38] = Inhibition of PDGFR
[39] = system: Jurkat; assay: Induction of cell cycle arrest in p53 deficient human Jurkat cells assessed as residual DNA synthesis at 5 uM after 24 hrs by FACS analysis; format: functional
[40] = system: SF-268; assay: Induction of cell cycle arrest in p53 deficient human SF268 cells assessed as residual DNA synthesis at 10 uM after 24 hrs by FACS analysis; format: functional
[41] = system: HeLa; assay: Inhibition of DNA replication in human HeLa cells assessed as interorigin distance between homogenous DNA fibers at 2 uM after 6 hrs by immunofluorescence assay; format: functional
[42] = target: Serine/threonine-protein kinase TAO3 (Homo sapiens, UniProt Q9H2K8); assay: Inhibition of TAO3
Serine/threonine-protein kinase TAO3, sequence (Q9H2K8 whole entry): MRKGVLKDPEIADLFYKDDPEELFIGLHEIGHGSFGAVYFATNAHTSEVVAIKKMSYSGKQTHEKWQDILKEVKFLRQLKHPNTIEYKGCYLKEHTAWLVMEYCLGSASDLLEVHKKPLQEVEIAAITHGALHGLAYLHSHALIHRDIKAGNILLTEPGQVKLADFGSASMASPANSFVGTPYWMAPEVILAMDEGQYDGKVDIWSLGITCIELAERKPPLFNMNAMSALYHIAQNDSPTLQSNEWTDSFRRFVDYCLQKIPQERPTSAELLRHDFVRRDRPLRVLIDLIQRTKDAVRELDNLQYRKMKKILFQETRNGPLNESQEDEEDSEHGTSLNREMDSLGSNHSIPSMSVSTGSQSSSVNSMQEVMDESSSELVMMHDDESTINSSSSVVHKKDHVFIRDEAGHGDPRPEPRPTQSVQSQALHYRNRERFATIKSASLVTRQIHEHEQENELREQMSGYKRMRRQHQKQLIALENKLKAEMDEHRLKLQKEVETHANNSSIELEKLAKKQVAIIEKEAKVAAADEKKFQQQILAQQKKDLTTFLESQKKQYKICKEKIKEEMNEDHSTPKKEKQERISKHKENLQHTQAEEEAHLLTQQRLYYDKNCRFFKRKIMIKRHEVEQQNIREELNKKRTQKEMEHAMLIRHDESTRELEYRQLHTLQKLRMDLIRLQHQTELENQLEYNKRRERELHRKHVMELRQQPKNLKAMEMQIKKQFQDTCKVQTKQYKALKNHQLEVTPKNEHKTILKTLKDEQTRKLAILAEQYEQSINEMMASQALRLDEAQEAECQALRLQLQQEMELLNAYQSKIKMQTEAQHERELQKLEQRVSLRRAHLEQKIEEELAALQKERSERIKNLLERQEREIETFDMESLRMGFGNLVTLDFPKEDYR

Tyrosine-protein kinase ZAP-70, sequence (P43403 whole entry): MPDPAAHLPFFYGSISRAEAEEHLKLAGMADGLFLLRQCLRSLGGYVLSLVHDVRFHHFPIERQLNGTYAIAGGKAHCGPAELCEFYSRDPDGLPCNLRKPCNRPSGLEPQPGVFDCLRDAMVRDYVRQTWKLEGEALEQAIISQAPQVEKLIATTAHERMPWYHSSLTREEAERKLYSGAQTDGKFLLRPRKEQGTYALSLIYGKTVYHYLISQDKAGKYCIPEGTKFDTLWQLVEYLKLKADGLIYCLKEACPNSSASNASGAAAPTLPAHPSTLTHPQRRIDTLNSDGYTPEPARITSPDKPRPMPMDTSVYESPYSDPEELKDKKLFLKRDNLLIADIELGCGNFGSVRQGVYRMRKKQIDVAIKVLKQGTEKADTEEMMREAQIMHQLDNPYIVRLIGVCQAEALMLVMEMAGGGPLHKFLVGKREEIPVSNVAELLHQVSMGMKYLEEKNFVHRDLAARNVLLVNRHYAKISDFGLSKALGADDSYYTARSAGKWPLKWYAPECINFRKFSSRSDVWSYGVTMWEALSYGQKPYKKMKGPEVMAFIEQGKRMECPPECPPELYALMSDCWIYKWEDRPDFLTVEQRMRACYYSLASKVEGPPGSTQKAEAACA

Compound: O=C1NCCc2[nH]c(-c3ccncc3)cc21
- Activity [1]: >20%
- IC50 [2]: 5.87 µM
- Activity [3]: <3%
- Activity [4]: 3%
- clearance [5]: 30 mL/min/kg
- IC50 [6]: 2.67 µM
- Activity [7]: 3%
- IC50 [8]: 3.2 µM
- Activity [9]: 288 kilobase
- Activity [10]: 287 kilobase
- Activity [11]: <3%
- Activity [12]: 3%
- Activity [13]: <3%
- Activity [14]: 3%
- IC50 [15]: 3.1 µM
- IC50 [16]: > 10 µM
- Activity [17]: 1.8 kilobase
- Activity [18]: 3%
- Activity [19]: >20%
- Activity [20]: >20%
- Activity [21]: < 3%
- Activity [22]: 3%
- Activity [23]: 3%
- Activity [24]: 1.6%
- Activity [25]: <3%
- Activity [26]: <3%
- Activity [27]: <3%
- Activity [28]: 3%
- Activity [29]: 10%
- Activity [30]: <3%
- Activity [31]: 2.32 kilobase
- Activity [32]: 3%
- Activity [33]: 226 kilobase
- Activity [34]: 1.86 kilobase
- Activity [35]: 3%
- Activity [36]: 1.92 kilobase
- Activity [37]: <3%
- IC50 [38]: > 10 µM
- Activity [39]: <3%
- Activity [40]: <3%
- Activity [41]: 241 kilobase
- IC50 [42]: > 10 µM
